Source: PubChem BioAssay AID179 (DTP/NCI, 2004)
The source made the active and inactive calls.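 The calls were made as follows: active = compounds giving half or more protection of infected cells from virus-caused growth loss, again on retest; inactive = the rest.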

System: CEM cells HIV-1 protection, formazan growth assay
Assay: NCI AIDS Antiviral Assay
Conditions: for IC50: measured here: growth of uninfected CEM cells
Procedure, shortened: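 Steps: treat uninfected and HIV-1-infected human CEM cells at five drug levels; quantify growth by soluble formazan; retest any compound reaching 50% protection; classify actives from the retest.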

SMILES	EC50	IC50	outcome
O=C(OCCN1CCCCC1)c1cc2ccccc2n1Cc1ccccc1	> 200 µM	30.2 µM	
CN1C(=O)c2ccccc2N=CN1C(=O)Nc1ccccc1	> 123 µM	> 123 µM	
Oc1ccc(-c2cc(-c3cc(-c4ccc(O)cc4)no3)on2)cc1	> 200 µM	6.31 µM	
CC12CCC(C=C1N1CCCCC1)C(C)(C)O2 (stereo not drawn)	> 1070 µM	> 1070 µM	
CCOc1ccccc1N=NC1C(=O)N(C(=O)CC(=O)Nc2ccccc2Cl)N=C1C (stereo not drawn)	> 200 µM	> 200 µM	
O=c1ccc2ccccc2n1O	> 200 µM	> 200 µM	
Cc1cc2nncn2c2nnnn12	> 200 µM	> 200 µM	
CN(C)/C=C/c1ccncc1	> 200 µM	145 µM	
Cc1ccc(Oc2cc(C)ccc2P(=O)(O)O)cc1	> 200 µM	138 µM	
CC(C)(C)c1cc(C(=O)/C=C/c2ccccc2)cc(C(C)(C)C)c1O	> 21.4 µM	> 21.4 µM	
N#CC(C#N)=C/C=C/c1c(Cl)cccc1Cl	> 200 µM	2.57 µM	
O=C1Oc2ccccc2CC1C(=O)c1ccc(Cl)cc1 (stereo not drawn)	> 18.2 µM	> 18.2 µM	
CC(=O)Oc1ccn2nc(C)c(Br)c2c1Br	> 200 µM	36.3 µM	
COC(=O)c1ccccc1NC(=NC1CCCCCC1)NS(=O)(=O)c1ccc(C)cc1	> 200 µM	> 200 µM	
O=C1CC(=O)N(CCc2ccccn2)C(=O)N1CCc1ccccn1			inactive
CNC(=S)SSSSC(=S)NC			inactive
CO[C@@H]1C2=CC=CC=C[C@H]2n2c(=O)n(C)c(=O)n21	> 525 µM	79.4 µM	
O=C(/C=C/c1ccccc1O)c1ccccc1O	> 209 µM	> 209 µM	
CN1C=c2c3c(ccc2=C2C=CC4C=C5OCOC5=CC4=C21)OCO3 (stereo not drawn)	> 20 µM	0.759 µM	
c1ccc2nocc2c1	> 2090 µM	1100 µM	
Nc1ncnc2c1ccn2C/C=C\CO	> 200 µM	> 200 µM	
Cc1c(-c2ccccc2)oc2c(C(=O)OCCN3CCCCC3)cccc2c1=O			inactive
CC1=CC(O)(c2ccc(-c3ccccc3Cl)cc2)OC1=O (stereo not drawn)			inactive

SMILES	EC50	IC50	outcome
COc1ccc2c(c1)[n+]([O-])c(/C(C)=N/NC(=O)CC#N)c[n+]2[O-]	> 16.6 µM	> 16.6 µM	
CCOC(=O)C(=O)C(/C(=N/N(C)C)C(=O)Nc1ccc(C)cc1C)c1nc2ccccc2[nH]c1=O (stereo not drawn)	> 380 µM	219 µM	
C/C(C=C(C#N)C#N)=C\c1ccc([N+](=O)[O-])cc1	> 11.5 µM	> 11.5 µM	
CCOc1c(Cc2ccccc2)c(=O)n2c3ccccc3n3c(=O)n(C)c(=O)c1c23	> 6.46 µM	> 6.46 µM	
CN1C(=O)N(C)[C@@H]2CC(=O)c3ccc(C(F)(F)F)cc3N2C1=O	> 288 µM	> 288 µM	
O=C1NCC2(CCNCC2)N1c1ccccc1	> 200 µM	> 200 µM	
CNC(=O)N(CCC#N)CCCN(C(=O)N(C)C)c1ccccc1	> 200 µM	> 200 µM	
S=C(NNC1=NCCCN1)Nc1ccccc1	> 200 µM	12.6 µM	
CCCCCCCCCc1cc(-c2ccc(C=O)s2)sc1-c1ccc(C=O)s1	> 200 µM	2.75 µM	
N#Cc1ccc(S(=O)(=O)c2ccc(C#N)cc2)cc1	> 200 µM	> 200 µM	
C/C(CN1C(=O)c2ccccc2C1=O)=N\NS(=O)(=O)c1ccccc1	> 20.4 µM	> 20.4 µM	
Cc1ccc2c(c1)C(=O)C1(C2)Cc2ccc(C)cc2C1=O	191 µM	> 200 µM	
CCOC(=O)c1c(N)n(-c2ccccc2)c(=O)n(-c2ccccc2)c1=O	> 708 µM	372 µM	
NC(CCC(=O)NCCCC(=O)O)C(=O)O (stereo not drawn)	> 85.1 µM	> 85.1 µM	
COc1cc(C2c3cccc4cccc(c34)C3CCC(=O)N32)cc(O)c1O (stereo not drawn)	3.02 µM	9.33 µM	
O=C1C=CC(=O)c2cc(Sc3ccccc3)c(=O)ccc21	> 123 µM	1.26 µM	
Cc1cn(C2CC(O)C(COC(=O)CCCCCCCCCCCBr)O2)c(=O)[nH]c1=O (stereo not drawn)	29.5 µM	51.3 µM	
COCC12CC(CC1=O)C1C2ON2c3ccccc3C(=O)C12c1ccccc1 (stereo not drawn)	> 50.1 µM	> 50.1 µM	
COc1cc2c(cc1OC)C(Cc1ccc(OC)c(Oc3ccc(C[C@@H]4c5cc(OC)c(OC)cc5CCN4C)cc3)c1)N(C)CC2 (stereo partly drawn)			inactive
N#Cc1ccc(Nc2cnc3ccc(N)cc3n2)cc1	> 10.5 µM	> 10.5 µM	
COc1ccc2c(c1)CCC1=C2C=C[P+]1(C)C			inactive
CNN1C(=O)c2c(N)c(C#N)c(-c3ccccc3)c(-c3ccccc3)c2C1=O	16.2 µM	174 µM	
COC(=O)CC12CC(CC(=O)O1)N(C(=O)Nc1ccccc1)O2 (stereo not drawn)	> 77.6 µM	> 77.6 µM	

SMILES	EC50	IC50	outcome
C=CC1(C)OC2(CCN(C(=O)OCC)CC2)OC1C (stereo not drawn)	> 200 µM	123 µM	
CCCCCCOC(=O)Nc1nnc(SSC2=NN=CC2NC(=O)OCCCCCC)s1 (stereo not drawn)	> 200 µM	19.5 µM	
O=C(Cc1ccccc1)NN1C(=O)C(Cl)C1c1cccc(O)c1 (stereo not drawn)	> 40.7 µM	15.5 µM	
C[C@@H]1C[C@H]2[C@@H]3C[C@H](F)C4=CC(=O)C=C[C@]4(C)[C@@]3(F)[C@@H](O)C[C@]2(C)C1C(=O)COC(=O)c1cccc2c(=O)c3ccccc3[nH]c12 (stereo partly drawn)	> 100 µM	2 µM	
O=[N+]([O-])c1cccc(C2N3CCCCC3[C@@H]3c4[nH]c5ccccc5c4CCN23)c1 (stereo partly drawn)	> 18.6 µM	> 18.6 µM	
CCOC(=O)c1cc(OC(C)=O)c2ccccc2c1	> 100 µM	95.5 µM	
CC1(Br)CN(C(=S)Nc2ccccc2)C1=O (stereo not drawn)	> 200 µM	97.7 µM	
C=CCN1C(=O)C(=O)N(CC=C)C(=O)C1=O			inactive
COC(=O)C(Cc1nc2ccc(Cl)cc2[nH]c1=O)/C(=N/NC(N)=O)C(=O)Nc1ccc(Cl)cc1 (stereo not drawn)	> 70.8 µM	> 70.8 µM	
Nc1cc(I)c2cccnc2c1O	> 209 µM	1.26 µM	
COc1ccc([C@@]2(O)c3c(ccc(O)c3OC)[C@H]2OC)c(OC)c1	> 15.8 µM	9.33 µM	
COc1cc(C)cc2c1C(=O)C(Br)CC2 (stereo not drawn)			inactive
O=[N+]([O-])c1ccc(N/N=C/CC(O)(C(F)(F)F)C(F)(F)F)c([N+](=O)[O-])c1	> 200 µM	7.08 µM	
COC(=O)C1Cc2cc3c(cc2C1=O)CCC3 (stereo not drawn)	> 200 µM	135 µM	
CC1=N/C(=C\c2cccc(Cl)c2)C(=O)O1	> 85.1 µM	> 85.1 µM	
COc1ccc2c(ccc(=O)n2C)c1	> 200 µM	> 200 µM	
Oc1ccc(Cl)cc1-c1cc(-c2ccccc2)nc(=S)[nH]1	> 200 µM	170 µM	
COc1ccc2c(c1)O[C@@H]1c3ccc(OC)cc3OC[C@H]21			inactive
COC(=O)C(=O)C1(CCC(C)=O)c2ccccc2-c2c(C)ccc(C)c21 (stereo not drawn)			inactive
CCN1C[C@]2(COC)CCC(O)C34[C@@H]5C[C@@H]6C(O)[C@@H]5[C@](O)(C[C@@H]6OC)[C@@H](C(OC)[C@@H]32)[C@H]14 (stereo partly drawn)			inactive
SC1N=C(c2ccco2)N2C(S)N=C(c3ccccc3)N12 (stereo not drawn)	> 200 µM	182 µM	
CCCCC1C=Cn2c(=O)oc3c(OC(C)C)c(OC(C)C)c(O)c1c32 (stereo not drawn)	> 200 µM	13.2 µM	
O=[N+]([O-])c1ccc(P2(=O)Nc3ccccc3N2)cc1	> 245 µM	70.8 µM	

SMILES	EC50	IC50	outcome
CCOC(=O)NNC(=O)NCc1ccccc1CNC(=O)NNC(=O)OCC	> 200 µM	> 200 µM	
COc1cc(C(=O)[O][Sn]([c]2ccccc2)([c]2ccccc2)[c]2ccccc2)cc(OC)c1OC	> 200 µM	0.0631 µM	
O=C(Nc1ccc(S(=O)(=O)Nc2ccc(N=Nc3ccc(S(=O)(=O)Nc4nccs4)cc3)cc2)cc1)C(N1CC1)(N1CC1)N1CC1	> 200 µM	129 µM	
C/C(O)=C(\C=N\C(N)=S)C(=O)Nc1ccc(Cl)cc1	> 200 µM	> 100 µM	
COC(C/C(=C/CO[Si](C(C)C)(C(C)C)C(C)C)C(=O)N(COCC[Si](C)(C)C)c1ccccc1I)OC	> 200 µM	32.4 µM	
O=C(O)CNS(=O)(=O)c1ccc(NC(=O)c2ccc([N+](=O)[O-])cc2)cc1			inactive
COC(=O)C1CCc2c(OC)ccc(OC)c2C1=O (stereo not drawn)			inactive
COC(=O)C(Cc1cn(C(C)n2cc(CC(NC(C)=O)C(=O)OC)c3ccccc32)c2ccccc12)NC(C)=O (stereo not drawn)	> 81.3 µM	74.1 µM	
C[P+]1(CCc2ccc(Cl)cc2)CC=CC1			inactive
COc1cc([C@H]2Oc3cc([C@H]4Oc5cc(O)cc(O)c5C(=O)[C@@H]4O)ccc3O[C@@H]2CO)ccc1O	> 200 µM	66.1 µM	
CC(C(=O)NCCNC(=O)CCCC(=O)N(C)O)C(=O)NCCNC(=O)CCCC(=O)N(C)O	> 200 µM	> 200 µM	
COc1ccc(N=NC(=O)NC(CC(C)C)C(N)=O)cc1 (stereo not drawn)	> 200 µM	3.39 µM	
COC(=O)C12CCC(CC1=O)C2(C)C (stereo not drawn)	> 251 µM	> 251 µM	
NCCCNCCSP(=O)(O)O	> 1150 µM	257 µM	
C1=C2CN3CCC45c6ccccc6N6CCC(OC1)C(C2CC34)C65 (stereo not drawn)	> 776 µM	302 µM	
O=C(O)[C@@H]1CSCN1C(=O)[C@@H]1CCC(=S)N1	> 200 µM	> 200 µM	
CNc1ccccc1S(=O)(=O)c1ccccc1Cl	> 63.1 µM	40.7 µM	
COc1cc(/C=C(\NC(=O)c2ccccc2)c2nc3ncncc3[nH]2)cc(OC)c1OC			inactive
CCOC(=O)c1c(N2CCOCC2)[nH]c(=O)c(C(c2ccco2)c2c(O)c(C(=O)OCC)c(N3CCOCC3)[nH]c2=O)c1O	> 200 µM	> 200 µM	
COc1ccc(-n2nc(C)cc(Cl)c2=O)cc1	> 145 µM	> 145 µM	
O=C1/C(=C/c2ccc(Cl)c(Cl)c2)CNC/C1=C\c1ccc(Cl)c(Cl)c1	> 16.2 µM	8.71 µM	
O=C1CCCC/C1=C1\C(=O)Nc2cc(F)ccc21	> 1020 µM	107 µM	
CCC12CCC[C@@]13C=C[C@H](O3)C(C)(C)C2=O (stereo partly drawn)			inactive
